Consider three molecules from doi:10.1101/2024.08.19.608619, “Discovery of potent SARS-CoV-2 nsp3 macrodomain inhibitors uncovers lack of translation to cellular antiviral response” (bioRxiv, 2024).

The target of one series is CDK7/cyclinH/MAT1(h) (Homo sapiens, UniProt P50613). The series can be described thus: biochemical. Conditions: atp_concentration=90, read-out: % of control remaining. On the set-up: In vitro kinase panel profiling, per cent remaining kinase activity at 10 uM. The source says:
(§1) We derisk potential for off-target activity by profiling the compound in a CEREP panel, a standard secondary pharmacology assessment, as well as a kinase panel to derisk a potential hinge-binding motif in our leads, and a PARP panel to derisk activity against human […]. Reassuringly, the compounds are selective, with the only off-targets being moderate human CHRM2 and KOR receptors activity associated with ASAP-0011198.

The target in the next series is CDK9/cyclin T1(h) (Homo sapiens, UniProt P50750). The series can be described thus: biochemical. On the set-up: In vitro kinase panel profiling, per cent remaining kinase activity at 10 uM. The conditions noted are these: atp_concentration=45, read-out: % of control remaining.
Source text: as §1

In a further series the target is T1, CHK1(h) (Homo sapiens, UniProt O14757).
T1 construct: gene CHEK1
T1 sequence (O14757 1-476): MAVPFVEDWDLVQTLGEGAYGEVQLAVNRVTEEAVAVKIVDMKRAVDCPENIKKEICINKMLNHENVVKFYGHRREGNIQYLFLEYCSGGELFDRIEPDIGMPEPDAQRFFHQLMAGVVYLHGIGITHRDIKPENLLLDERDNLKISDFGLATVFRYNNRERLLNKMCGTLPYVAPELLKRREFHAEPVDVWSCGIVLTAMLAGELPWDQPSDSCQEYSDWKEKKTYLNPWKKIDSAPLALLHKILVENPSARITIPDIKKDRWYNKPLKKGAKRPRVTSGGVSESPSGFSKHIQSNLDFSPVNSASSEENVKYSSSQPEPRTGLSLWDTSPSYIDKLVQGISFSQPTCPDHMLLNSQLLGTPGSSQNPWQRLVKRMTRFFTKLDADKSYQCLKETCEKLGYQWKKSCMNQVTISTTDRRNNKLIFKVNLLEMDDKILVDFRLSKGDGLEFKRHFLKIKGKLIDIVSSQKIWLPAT
The series can be described thus: biochemical. On the set-up: In vitro kinase panel profiling, per cent remaining kinase activity at 10 uM. The conditions noted are these: atp_concentration=90, read-out: % of control remaining.
Source text: as §1

The target of a further series is T2, CK1γ1(h) (Homo sapiens, UniProt Q9HCP0).
T2 construct: gene CSNK1G1
The series can be described thus: biochemical. The conditions noted are these: atp_concentration=15, read-out: % of control remaining. Set-up: In vitro kinase panel profiling, per cent remaining kinase activity at 10 uM.
Source text: as §1

In a further series the target is T3, CK2α2(h) (Homo sapiens, UniProt P19784).
T3 construct: gene CSNK2A2
T3 sequence (P19784 whole entry): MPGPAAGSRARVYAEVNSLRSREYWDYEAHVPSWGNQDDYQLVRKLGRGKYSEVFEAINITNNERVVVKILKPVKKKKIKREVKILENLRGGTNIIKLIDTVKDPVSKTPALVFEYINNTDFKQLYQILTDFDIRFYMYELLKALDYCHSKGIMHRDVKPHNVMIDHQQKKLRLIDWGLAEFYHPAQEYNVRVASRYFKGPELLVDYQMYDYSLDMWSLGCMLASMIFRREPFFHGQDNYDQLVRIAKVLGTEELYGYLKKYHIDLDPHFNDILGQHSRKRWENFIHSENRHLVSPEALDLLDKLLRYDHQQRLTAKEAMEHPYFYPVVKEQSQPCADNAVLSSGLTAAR
The series can be described thus: biochemical. On the set-up: In vitro kinase panel profiling, per cent remaining kinase activity at 10 uM. The conditions noted are these: atp_concentration=10, read-out: % of control remaining.
Source text: as §1

The next series addresses T4, CaMKI(h) (Homo sapiens, UniProt Q14012).
T4 construct: gene CAMK1
The series can be described thus: biochemical. Set-up: In vitro kinase panel profiling, per cent remaining kinase activity at 10 uM. The conditions noted are these: atp_concentration=200, read-out: % of control remaining.
Source text: as §1

Another series has as its target EGFR(h) (Homo sapiens, UniProt P00533). The series can be described thus: biochemical. On the set-up: In vitro kinase panel profiling, per cent remaining kinase activity at 10 uM. Conditions: atp_concentration=10, read-out: % of control remaining.
Source text: as §1

Another series concerns the target EphA5(h) (Homo sapiens, UniProt P54756). The series can be described thus: biochemical. Set-up: In vitro kinase panel profiling, per cent remaining kinase activity at 10 uM. Conditions: atp_concentration=10, read-out: % of control remaining.
Source text: as §1

In another series the target is Fyn(h) (Homo sapiens, UniProt P06241). The series can be described thus: biochemical. Conditions: atp_concentration=70, read-out: % of control remaining. Set-up: In vitro kinase panel profiling, per cent remaining kinase activity at 10 uM.
Chain of Fyn(h) (P06241 whole entry): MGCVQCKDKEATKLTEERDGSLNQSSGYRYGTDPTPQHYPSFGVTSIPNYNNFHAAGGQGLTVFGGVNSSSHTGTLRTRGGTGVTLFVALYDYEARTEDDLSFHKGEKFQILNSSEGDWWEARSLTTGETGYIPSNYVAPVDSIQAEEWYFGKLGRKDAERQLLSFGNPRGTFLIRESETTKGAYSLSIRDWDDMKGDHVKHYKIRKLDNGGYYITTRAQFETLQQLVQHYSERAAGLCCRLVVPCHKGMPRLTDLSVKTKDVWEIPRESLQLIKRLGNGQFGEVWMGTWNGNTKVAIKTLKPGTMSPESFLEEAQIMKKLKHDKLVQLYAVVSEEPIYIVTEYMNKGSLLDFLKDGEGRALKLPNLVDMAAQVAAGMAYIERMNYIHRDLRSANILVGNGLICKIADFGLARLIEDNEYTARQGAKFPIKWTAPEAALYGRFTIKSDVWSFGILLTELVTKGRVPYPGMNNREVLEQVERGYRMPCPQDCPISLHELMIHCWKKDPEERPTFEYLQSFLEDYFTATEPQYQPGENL
Source text: as §1

The target of a further series is T5, IGF-1R(h) (Homo sapiens, UniProt P08069).
T5 construct: gene IGF1R
T5 sequence (P08069 whole entry): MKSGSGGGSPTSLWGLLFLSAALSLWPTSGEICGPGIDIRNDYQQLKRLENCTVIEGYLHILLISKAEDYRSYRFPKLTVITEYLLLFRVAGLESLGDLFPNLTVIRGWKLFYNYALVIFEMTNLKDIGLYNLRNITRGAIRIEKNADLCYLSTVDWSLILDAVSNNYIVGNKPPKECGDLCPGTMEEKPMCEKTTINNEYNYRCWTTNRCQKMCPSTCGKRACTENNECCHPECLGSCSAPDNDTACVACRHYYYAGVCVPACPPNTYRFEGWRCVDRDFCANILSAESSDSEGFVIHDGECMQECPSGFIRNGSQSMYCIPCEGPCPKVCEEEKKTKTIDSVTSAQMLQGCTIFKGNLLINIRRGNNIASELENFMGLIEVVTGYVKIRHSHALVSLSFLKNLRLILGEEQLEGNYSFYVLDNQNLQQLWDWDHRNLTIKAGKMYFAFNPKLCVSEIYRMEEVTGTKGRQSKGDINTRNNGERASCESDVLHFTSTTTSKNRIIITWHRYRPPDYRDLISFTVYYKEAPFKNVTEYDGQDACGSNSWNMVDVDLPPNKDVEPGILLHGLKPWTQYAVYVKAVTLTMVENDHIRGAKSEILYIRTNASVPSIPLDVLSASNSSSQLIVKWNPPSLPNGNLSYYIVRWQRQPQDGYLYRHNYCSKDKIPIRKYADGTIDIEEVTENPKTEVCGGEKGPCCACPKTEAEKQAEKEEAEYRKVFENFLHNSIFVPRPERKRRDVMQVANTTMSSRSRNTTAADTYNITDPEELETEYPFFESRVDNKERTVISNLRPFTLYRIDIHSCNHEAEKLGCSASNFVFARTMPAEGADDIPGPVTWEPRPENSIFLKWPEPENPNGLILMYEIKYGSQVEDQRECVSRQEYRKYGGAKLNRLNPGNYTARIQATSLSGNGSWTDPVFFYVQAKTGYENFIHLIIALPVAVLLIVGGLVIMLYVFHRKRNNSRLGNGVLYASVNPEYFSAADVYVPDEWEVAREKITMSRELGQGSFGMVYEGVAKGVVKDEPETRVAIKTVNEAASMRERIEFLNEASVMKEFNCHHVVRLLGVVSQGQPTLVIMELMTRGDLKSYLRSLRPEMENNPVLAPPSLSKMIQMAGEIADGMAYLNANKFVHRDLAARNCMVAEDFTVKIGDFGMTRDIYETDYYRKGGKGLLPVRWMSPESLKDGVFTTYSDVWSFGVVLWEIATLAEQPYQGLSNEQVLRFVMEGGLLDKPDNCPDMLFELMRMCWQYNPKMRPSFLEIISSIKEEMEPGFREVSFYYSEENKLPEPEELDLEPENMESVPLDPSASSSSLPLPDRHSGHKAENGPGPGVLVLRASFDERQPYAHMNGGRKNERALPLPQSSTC
The series can be described thus: biochemical. Set-up: In vitro kinase panel profiling, per cent remaining kinase activity at 10 uM. Conditions: atp_concentration=200, read-out: % of control remaining.
Source text: as §1

Another series has as its target KDR(h) (Homo sapiens, UniProt P35968). The series can be described thus: biochemical. Conditions: atp_concentration=90, read-out: % of control remaining. Set-up: In vitro kinase panel profiling, per cent remaining kinase activity at 10 uM.
Source text: as §1

For another series, the target named is T6, MLK1(h) (Homo sapiens, UniProt P80192).
T6 construct: gene MAP3K9
T6 sequence (P80192 whole entry): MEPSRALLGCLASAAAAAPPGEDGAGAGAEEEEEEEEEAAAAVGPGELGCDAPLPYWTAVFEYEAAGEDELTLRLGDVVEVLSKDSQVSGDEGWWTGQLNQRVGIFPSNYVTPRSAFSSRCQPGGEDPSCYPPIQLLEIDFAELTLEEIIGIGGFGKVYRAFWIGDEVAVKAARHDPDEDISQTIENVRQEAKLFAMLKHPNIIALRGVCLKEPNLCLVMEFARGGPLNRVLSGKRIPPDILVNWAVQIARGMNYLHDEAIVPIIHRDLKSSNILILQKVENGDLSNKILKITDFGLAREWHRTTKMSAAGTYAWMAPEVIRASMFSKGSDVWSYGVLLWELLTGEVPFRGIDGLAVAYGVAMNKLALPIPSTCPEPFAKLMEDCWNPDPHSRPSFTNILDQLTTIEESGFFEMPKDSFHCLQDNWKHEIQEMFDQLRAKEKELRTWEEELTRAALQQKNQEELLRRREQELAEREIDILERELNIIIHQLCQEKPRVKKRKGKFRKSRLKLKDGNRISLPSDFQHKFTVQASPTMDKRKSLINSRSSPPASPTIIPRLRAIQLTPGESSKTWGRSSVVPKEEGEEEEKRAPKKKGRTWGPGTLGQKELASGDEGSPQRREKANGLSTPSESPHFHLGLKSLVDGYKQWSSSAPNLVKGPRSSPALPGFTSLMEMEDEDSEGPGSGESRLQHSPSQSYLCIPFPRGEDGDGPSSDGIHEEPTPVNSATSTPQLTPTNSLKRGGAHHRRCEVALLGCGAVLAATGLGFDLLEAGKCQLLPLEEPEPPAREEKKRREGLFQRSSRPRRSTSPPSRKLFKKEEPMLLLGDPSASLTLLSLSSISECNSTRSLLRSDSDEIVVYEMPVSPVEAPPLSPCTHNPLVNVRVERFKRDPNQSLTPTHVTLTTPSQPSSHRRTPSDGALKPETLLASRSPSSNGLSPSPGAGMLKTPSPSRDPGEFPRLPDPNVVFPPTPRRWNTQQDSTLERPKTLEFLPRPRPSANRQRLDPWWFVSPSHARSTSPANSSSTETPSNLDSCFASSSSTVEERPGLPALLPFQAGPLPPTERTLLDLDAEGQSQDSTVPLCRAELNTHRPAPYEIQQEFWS
The series can be described thus: biochemical. The conditions noted are these: atp_concentration=45, read-out: % of control remaining. On the set-up: In vitro kinase panel profiling, per cent remaining kinase activity at 10 uM.
Source text: as §1

The target in another series is PAK2(h) (Homo sapiens, UniProt Q13177). The series can be described thus: biochemical. Conditions: atp_concentration=90, read-out: % of control remaining. Set-up: In vitro kinase panel profiling, per cent remaining kinase activity at 10 uM.
Source text: as §1

The target of the next series is T7, PI3 Kinase (p120γ)(h) (Homo sapiens, UniProt P48736).
T7 construct: gene PIK3CG
The series can be described thus: biochemical. Set-up: In vitro kinase panel profiling, per cent remaining kinase activity at 10 uM. Conditions: atp_concentration=100, read-out: % of control remaining.
Source text: as §1

Another series addresses T8, ROCK-I(h) (Homo sapiens, UniProt Q13464).
T8 construct: gene ROCK1
The series can be described thus: biochemical. Set-up: In vitro kinase panel profiling, per cent remaining kinase activity at 10 uM. Conditions: atp_concentration=70, read-out: % of control remaining.
Source text: as §1

The target in another series is T9, c-RAF(h) (Homo sapiens, UniProt P04049).
T9 construct: gene RAF1
The series can be described thus: biochemical. Set-up: In vitro kinase panel profiling, per cent remaining kinase activity at 10 uM. The conditions noted are these: atp_concentration=120, read-out: % of control remaining.
Source text: as §1

In a further series the target is mTOR(h) (Homo sapiens, UniProt P42345). The series can be described thus: biochemical. Set-up: In vitro kinase panel profiling, per cent remaining kinase activity at 10 uM. Conditions: atp_concentration=70, read-out: % of control remaining.
Source text: as §1

Series [1] in a line: Permeability Papp (AB) MDR1/MDCKII. The conditions noted are these: In vitro MDR1-MDCKII permeability, mean; for perc_recovery_a_to_b_mean: recovery A to B; for papp_a_to_b_mean: A to B.

“And” between values parts separate entries of the source, which are not always exact repeats. Identical values can stand only once. Like-named read-outs stand apart in the source and are kept apart here.

Chain of KDR(h) (P35968 whole entry): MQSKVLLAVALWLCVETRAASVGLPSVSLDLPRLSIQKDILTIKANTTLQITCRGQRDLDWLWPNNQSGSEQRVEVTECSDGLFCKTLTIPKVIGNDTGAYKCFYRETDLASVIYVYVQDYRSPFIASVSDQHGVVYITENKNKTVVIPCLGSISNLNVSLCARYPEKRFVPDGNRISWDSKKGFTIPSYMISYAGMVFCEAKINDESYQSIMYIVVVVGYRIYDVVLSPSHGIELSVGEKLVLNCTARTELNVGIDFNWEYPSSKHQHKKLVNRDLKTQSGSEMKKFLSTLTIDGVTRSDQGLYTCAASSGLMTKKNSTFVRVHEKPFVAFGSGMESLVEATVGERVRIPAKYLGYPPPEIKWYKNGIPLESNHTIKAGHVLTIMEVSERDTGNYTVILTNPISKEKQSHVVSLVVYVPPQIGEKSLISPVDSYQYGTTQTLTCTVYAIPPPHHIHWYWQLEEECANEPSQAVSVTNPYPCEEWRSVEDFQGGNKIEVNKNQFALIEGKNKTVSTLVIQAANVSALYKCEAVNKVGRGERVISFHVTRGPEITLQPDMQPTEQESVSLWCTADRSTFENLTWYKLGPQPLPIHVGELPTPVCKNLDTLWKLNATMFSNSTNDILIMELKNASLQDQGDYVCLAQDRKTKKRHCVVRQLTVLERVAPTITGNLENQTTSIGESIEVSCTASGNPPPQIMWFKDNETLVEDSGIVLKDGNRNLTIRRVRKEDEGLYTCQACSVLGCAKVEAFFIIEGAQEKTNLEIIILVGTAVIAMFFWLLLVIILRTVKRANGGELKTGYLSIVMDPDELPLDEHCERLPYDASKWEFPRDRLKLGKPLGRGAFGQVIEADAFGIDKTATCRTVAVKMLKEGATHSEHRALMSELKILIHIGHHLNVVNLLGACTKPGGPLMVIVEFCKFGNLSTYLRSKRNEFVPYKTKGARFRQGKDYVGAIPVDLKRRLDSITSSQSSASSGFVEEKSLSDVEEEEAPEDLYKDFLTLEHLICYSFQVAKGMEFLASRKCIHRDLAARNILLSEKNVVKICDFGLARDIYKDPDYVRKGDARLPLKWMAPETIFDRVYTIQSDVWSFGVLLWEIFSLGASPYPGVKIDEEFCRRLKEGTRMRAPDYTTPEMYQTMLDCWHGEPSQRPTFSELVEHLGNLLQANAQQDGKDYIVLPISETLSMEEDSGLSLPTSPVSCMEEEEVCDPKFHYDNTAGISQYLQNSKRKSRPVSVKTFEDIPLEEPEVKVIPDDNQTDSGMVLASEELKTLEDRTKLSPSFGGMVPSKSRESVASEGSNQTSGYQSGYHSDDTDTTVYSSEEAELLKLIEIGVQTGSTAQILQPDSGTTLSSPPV
T4 sequence (Q14012 whole entry): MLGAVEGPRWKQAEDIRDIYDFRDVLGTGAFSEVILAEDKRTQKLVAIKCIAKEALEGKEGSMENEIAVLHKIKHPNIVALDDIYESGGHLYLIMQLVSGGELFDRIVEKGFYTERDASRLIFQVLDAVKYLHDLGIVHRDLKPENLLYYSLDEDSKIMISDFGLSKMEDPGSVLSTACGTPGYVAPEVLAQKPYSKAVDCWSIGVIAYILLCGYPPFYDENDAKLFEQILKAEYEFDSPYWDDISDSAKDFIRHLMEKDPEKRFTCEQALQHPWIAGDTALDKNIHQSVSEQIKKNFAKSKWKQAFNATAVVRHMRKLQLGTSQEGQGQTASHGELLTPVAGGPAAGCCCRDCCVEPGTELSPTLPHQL

Take `CC(C)C(Nc1ncnc2[nH]ccc12)c1ccc2c(c1)S(=O)(=O)CCC2` (centres unmarked) [ASAP-0008327]: the remaining activity at 10 µM at CDK7/cyclinH/MAT1(h) (batch_name=ASAP-0008327-001) stood at 85%; on CDK9/cyclin T1(h) (batch_name=ASAP-0008327-001) it was 114%; at CHK1(h) (batch_name=ASAP-0008327-001), 84%; on CK1γ1(h) (batch_name=ASAP-0008327-001), 102%; on CK2α2(h) (batch_name=ASAP-0008327-001), 90%; on CaMKI(h) (batch_name=ASAP-0008327-001), 94%. Further, the remaining activity at 10 µM on EGFR(h) (batch_name=ASAP-0008327-001) is 102%; at EphA5(h) (batch_name=ASAP-0008327-001), 110%; on Fyn(h) (batch_name=ASAP-0008327-001), 127%; at IGF-1R(h) (batch_name=ASAP-0008327-001) it was 88%; at KDR(h) (batch_name=ASAP-0008327-001), 82%; at MLK1(h) (batch_name=ASAP-0008327-001) it was 81%. Further, the remaining activity at 10 µM on PAK2(h) (batch_name=ASAP-0008327-001) worked out at 110%; on PI3 Kinase (p120γ)(h) (batch_name=ASAP-0008327-001), 103%; on ROCK-I(h) (batch_name=ASAP-0008327-001) it was 110%; at c-RAF(h) (batch_name=ASAP-0008327-001), 97%; at mTOR(h) (batch_name=ASAP-0008327-001), 102%. Also, the perc_recovery_a_to_b_mean in [1] came out at 87.0%.
On to `COc1ccc([C@@H](Cc2nnn[nH]2)NC(=O)c2ncnc3[nH]ccc23)cc1` [ASAP-0008340], for which the remaining activity at 10 µM on CDK7/cyclinH/MAT1(h) (batch_name=ASAP-0008340-001) is 91%; at CDK9/cyclin T1(h) (batch_name=ASAP-0008340-001) it was 117%; at CHK1(h) (batch_name=ASAP-0008340-001), 95%; on CK1γ1(h) (batch_name=ASAP-0008340-001) it was 95%; at CK2α2(h) (batch_name=ASAP-0008340-001) it was 88%; at CaMKI(h) (batch_name=ASAP-0008340-001), 100%. Moreover, the remaining activity at 10 µM on EGFR(h) (batch_name=ASAP-0008340-001) came out at 96%; at EphA5(h) (batch_name=ASAP-0008340-001) it was 106%; on Fyn(h) (batch_name=ASAP-0008340-001), 105%; on IGF-1R(h) (batch_name=ASAP-0008340-001) it was 106%; at KDR(h) (batch_name=ASAP-0008340-001), 79%; at MLK1(h) (batch_name=ASAP-0008340-001), 85%. Moreover, the remaining activity at 10 µM is 102% on PAK2(h) (batch_name=ASAP-0008340-001); 89% on PI3 Kinase (p120γ)(h) (batch_name=ASAP-0008340-001); 93% on ROCK-I(h) (batch_name=ASAP-0008340-001); 90% on c-RAF(h) (batch_name=ASAP-0008340-001); 95% on mTOR(h) (batch_name=ASAP-0008340-001). In [1], the papp_a_to_b_mean stood at 1.39 ×10⁻⁶ cm/s. In [1], this molecule gave a perc_recovery_a_to_b_mean of 89.1%.
As for `CC(C)[C@@H](Nc1ncnc2[nH]c(-c3cnn(C)c3C#N)cc12)c1ccc2c(n1)OCCO2` [ASAP-0008418], the remaining activity at 10 µM at CDK7/cyclinH/MAT1(h) (batch_name=ASAP-0008418-001) turned out to be 101%; at CDK9/cyclin T1(h) (batch_name=ASAP-0008418-001), 45%; on CHK1(h) (batch_name=ASAP-0008418-001) it was 108%; on CK1γ1(h) (batch_name=ASAP-0008418-001), 87%; at CK2α2(h) (batch_name=ASAP-0008418-001) it was 86%; at CaMKI(h) (batch_name=ASAP-0008418-001), 104%. In addition, the remaining activity at 10 µM on EGFR(h) (batch_name=ASAP-0008418-001) came to 81%; at EphA5(h) (batch_name=ASAP-0008418-001), 91%; at Fyn(h) (batch_name=ASAP-0008418-001), 56%; at IGF-1R(h) (batch_name=ASAP-0008418-001) it was 108%; on KDR(h) (batch_name=ASAP-0008418-001), 80%; at MLK1(h) (batch_name=ASAP-0008418-001), 81%. The remaining activity at 10 µM amounted to 95% at PAK2(h) (batch_name=ASAP-0008418-001); 63% on PI3 Kinase (p120γ)(h) (batch_name=ASAP-0008418-001); 93% at ROCK-I(h) (batch_name=ASAP-0008418-001); 81% on c-RAF(h) (batch_name=ASAP-0008418-001); 83% at mTOR(h) (batch_name=ASAP-0008418-001). The papp_a_to_b_mean in series [1] was 12.8 ×10⁻⁶ cm/s and 21.3 ×10⁻⁶ cm/s. Moreover, the perc_recovery_a_to_b_mean in [1] is 82.0% and 88.6%.
